Experimental data published in US20190381128A1, “GLP-1 Secretagogue and Composition” (MORINAGA MILK INDUSTRY CO., LTD., priority 2017, published 2019).

Columns and labels:
GLUTag cells [1] = assay: GLP-1 secretion cell assay using GLUTag cells (ELISA of culture supernatant); format: cell-based, mouse; conditions: for GLP-1 secretion stimulating activity on GLUTag cells, ratio to blank group: Table 8; for GLP-1 secretion stimulating activity in comparison with the blank group: Dunnett t-test
GLUTag cells [2] = assay: as above; format: cell-based, mouse
Method: Each sample was dissolved in Milli Q water and a solution having a protein concentration of 7.5 mg/mL was prepared by the Bradford method. The solution was adjusted to pH 2.0, which is the same pH as in the human stomach, with a 1 mol/L hydrochloric acid, then pepsin (Pep, Sigma-Aldrich; in 1 mM HCL) was added in an amount of 1/12.5 (w/w) relative to the proteins, and the mixture was shaken in a 37° C. thermostat at 140 rpm for 30 minutes. Then, the pH was adjusted to 7.0 with a 1 mol/L sodium hydrogen carbonate solution to stop the digestion reaction of pepsin. Subsequently, pancreatin (Pan, Sigma-Aldrich; in 0.1 M NaHCO3) was added in an amount of 1/62.5 (w/w) relative to the proteins, and the mixture was shaken in a 37° C. thermostat at 140 rpm for a desired time (5 minutes, 10 minutes, 15 minutes, 30 minutes, 45 minutes, 60 minutes, 120 minutes, or overnight). After that, with heat at 90° C. for 3 minutes, the digestion reaction by pancreatin was stopped. The solution after digestion was lyophilized and stored at 4° C. The digestion reactions simulated the state of digestion that a micellar casein and various casein materials taken in the body undergo in the gastrointestinal tract.
GLUTag cells (see, for example, Food Funct., 2015, vol. 6, p. 2525-2534) were cultured on a culture medium containing 10% fetal bovine serum (Dulbecco's modified Eagle's medium (DMEM), GIBCO) at 37° C. in a 5% CO2 incubator for 2 to 3 days into a subconfluent layer. Then, the culture medium was removed, and the cells were suspended twice with HEPES buffer (20 mM HEPES(Sigma), 140 mM NaCl (Wako), 4.5 mM KCl (Wako), 10 mM Glucose (Wako), 1.2 mM MgCl2 (Wako), 1.2 mM CaCl2 (Wako), 0.1% BSA (Sigma), pH7.4).
The lyophilized sample of (1) was dissolved with HEPES buffer so as to give a concentration of 5 mg/mL, and 80 μL of the resulting solution was added to each well of a 48-well culture plate containing the GLUTag cells cultured therein and the cells were incubated at 37° C. for […]. After the treatment, the culture supernatant was collected and was subjected to centrifugation at 800 g at 4° C. for 5 minutes and the resulting supernatant was stored at −80° C. as an ELISA measurement sample. The amount of GLP-1 in the supernatant was measured using ELISA (Millipore) according to a protocol recommended by the manufacturer. The amount of GLP-1 was represented as a relative amount to 100% of that of a group treated only with HEPES buffer (blank group). The number of samples was always three (n=3).
The lyophilized sample of (1) was subjected to an assay using GLUTag cells by the same method and conditions as in Example 1 and the amount of GLP-1 secreted was represented as a relative amount to 100% of that of a blank group. The number of samples was always three (n=3).
The lyophilized sample of (1) was subjected to an assay using GLUTag cells by the same method and conditions as in Example 1, and the amount of GLP-1 secreted was measured as a relative amount to 100% of that of a blank group, provided that the digested product of the κ-casein material sample was diluted at a concentration of 5 mg/mL or 0.5 mg/mL in dissolution in HEPES buffer. A glycomacropeptide (CGMP: from Arla) was also provided as a sample and the standard sample was dissolved as it was in HEPES buffer at a concentration of […]. In the assay, GLUTag cells obtained through depolarizing stimulation with 70 mM KCl were used as a positive control. The amount of GLP-1 secreted was represented as a relative amount to 100% of that of a blank group. The number of samples was always three or four (n=3 to 4).
The lyophilized sample of (1) was subjected to an assay using GLUTag cells by the same method and conditions as in Example 1, and the amount of GLP-1 secreted was represented as a relative amount to 100% of that of a blank group. The number of samples was always three (n=3). […]

[3] = synthesized peptide 1 mM in HEPES buffer
[4] = synthesized peptide 5 mM in HEPES buffer

| Substance | GLP-1 secretion stimulating activity on GLUTag cells, ratio to blank group (GLUTag cells [1]; [3]) | GLP-1 secretion stimulating activity on GLUTag cells, ratio to blank group (GLUTag cells [1]; [4]) | other results |
| --- | --- | --- | --- |
| GPVRGPFPIIV (peptide 1) [SEQ ID NO: 1, peptide fragment detected in micellar casein digested product, synthesized] | 126.0% | 254.8 (*) % | GLP-1 secretion stimulating activity in comparison with the blank group (GLUTag cells [1]; peptide 5 mM): significantly higher |
| Glycomacropeptide |  |  | GLP-1 secretion stimulating activity on GLUTag cells, ratio to blank group (GLUTag cells [2]; Table 4, non-degraded (glycomacropeptide dissolved as it was in HEPES buffer)): 81.8% |
| HIQKEDVPSE (peptide 2) [SEQ ID NO: 2, peptide fragment detected in micellar casein digested product, synthesized] | 141.8% | 200.5 (*) % | GLP-1 secretion stimulating activity in comparison with the blank group (GLUTag cells [1]; peptide 5 mM): significantly higher |
| HQGLPQEVLNE (peptide 4) [SEQ ID NO: 4, peptide fragment detected in micellar casein digested product, synthesized] | 158.9% | 115.6% |  |
| LEDSPEVIESPPEINT (peptide 5) [SEQ ID NO: 5, peptide fragment detected in micellar casein digested product, synthesized] | 133.9% | 136.9% |  |
| SRYPSYGLN (peptide 6) [SEQ ID NO: 6, peptide fragment found in both micellar casein hydrolysate and casein hydrolysate, synthesized] | 123.6% | 149.7% |  |
| YPVEPFTESQ (peptide 3) [SEQ ID NO: 3, peptide fragment detected in micellar casein digested product, synthesized] | 168.7 (*) % | 143.5% | GLP-1 secretion stimulating activity in comparison with the blank group (GLUTag cells [1]; peptide 1 mM): significantly higher |
| YQKFPQYL (peptide 7) [SEQ ID NO: 7, peptide fragment found in both micellar casein hydrolysate and casein hydrolysate, synthesized] | 160.8% | 87.1% |  |
| κ-Casein: κ-casein from bovine milk (from Sigma-Aldrich) |  |  | GLP-1 secretion stimulating activity on GLUTag cells, ratio to blank group (GLUTag cells [2]; Table 3, non-degraded, 0.5 mg/ml): 115.6 (c) %; GLP-1 secretion stimulating activity on GLUTag cells, ratio to blank group (GLUTag cells [2]; Table 3, non-degraded, 5 mg/ml): 176.5 (b) %; GLP-1 secretion stimulating activity on GLUTag cells, ratio to blank group (GLUTag cells [2]; Table 3, pep + pan30, 0.5 mg/ml): 140.9 (c) %; GLP-1 secretion stimulating activity on GLUTag cells, ratio to blank group (GLUTag cells [2]; Table 3, pep + pan30, 5 mg/ml): 225.2 (b) %; GLP-1 secretion stimulating activity on GLUTag cells, ratio to blank group (GLUTag cells [2]; Table 3, pep + pan60, 0.5 mg/ml): 149.2 (b) %; GLP-1 secretion stimulating activity on GLUTag cells, ratio to blank group (GLUTag cells [2]; Table 3, pep + pan60, 5 mg/ml): 216.2 (b) %; GLP-1 secretion stimulating activity on GLUTag cells, ratio to blank group (GLUTag cells [2]; Table 3, pep only, 0.5 mg/ml): 150.5 (c) %; GLP-1 secretion stimulating activity on GLUTag cells, ratio to blank group (GLUTag cells [2]; Table 3, pep only, 5 mg/ml): 261.8 (b) % |
